Measured values published in patent US20080318268A1, “Devices and Methods for the Selection of Agents with Efficacy Against Biofilm” (priority 2005, published 2008).

Columns and labels:
Type in all cases: cell-based
[1] = test system: Staphylococcus aureus (Staph) planktonic bacteria; assay: MBEC assay, planktonic Staph isolates (Example 5); conditions: number of resistant isolates; 12 isolates from device associated infections; exposed 24 hours
[2] = test system: Staphylococcus aureus (Staph) biofilm; assay: MBEC assay, Staph biofilms (Example 5); conditions: number of resistant isolates; 12 isolates from device associated infections; exposed 24 hours
[3] = test system: planktonic Staphylococcus aureus; assay: Staphylococcus test plate, planktonic forms (Example 9); conditions: breakpoint concentrations, number in the label is the concentration tested
[4] = test system: Staphylococcus aureus biofilm; assay: Staphylococcus test plate, biofilm forms (Example 9); conditions: breakpoint concentrations, number in the label is the concentration tested
[5] = test system: Pseudomonas aeruginosa (Ps) planktonic bacteria; assay: MBEC assay, planktonic Ps isolates (Example 5); conditions: number of resistant isolates; 12 isolates from Cystic Fibrosis patients; exposed 24 hours
[6] = test system: Pseudomonas aeruginosa (Ps) biofilm; assay: MBEC assay, Ps biofilms (Example 5); conditions: number of resistant isolates; 12 isolates from Cystic Fibrosis patients; exposed 24 hours
[7] = test system: planktonic P. aeruginosa; assay: Pseudomonas aeruginosa biofilm assay kit, planktonic MIC reading of challenge plate (Example 8); conditions: challenge 24 hours at 35° C.; breakpoint concentrations
[8] = test system: P. aeruginosa biofilm; assay: Pseudomonas aeruginosa biofilm assay kit, biofilm MBEC reading of recovery plate (Example 8); conditions: challenge 24 hours at 35° C.; recovery 20 to 24 hours; breakpoint concentrations

| Molecule | Staph resistance to individual antibiotics and antibiotic combinations, Planktonic [1] | Staph resistance to individual antibiotics and antibiotic combinations, Biofilm [2] | Number of Staphylococcus aureus isolates resistant to individual antibiotics and antibiotic combinations, Planktonic ([3]; listed as VAN2) | Number of Staphylococcus aureus isolates resistant to individual antibiotics and antibiotic combinations, Planktonic ([3]; listed as VAN4) | Number of Staphylococcus aureus isolates resistant to individual antibiotics and antibiotic combinations, Biofilm [4] | Ps resistance to individual antibiotics and antibiotic combinations, Planktonic [5] | Ps resistance to individual antibiotics and antibiotic combinations, Biofilm [6] | Number of P. aeruginosa isolates resistant to individual antibiotics and antibiotic combinations, Planktonic [7] | Number of P. aeruginosa isolates resistant to individual antibiotics and antibiotic combinations, Biofilm [8] | Number of Staphylococcus aureus isolates resistant to individual antibiotics and antibiotic combinations, Planktonic ([3]; listed as GM2) | Number of Staphylococcus aureus isolates resistant to individual antibiotics and antibiotic combinations, Planktonic ([3]; listed as GM4) | Number of Staphylococcus aureus isolates resistant to individual antibiotics and antibiotic combinations, Biofilm ([4]; listed as GM2) | Number of Staphylococcus aureus isolates resistant to individual antibiotics and antibiotic combinations, Biofilm ([4]; listed as GM4) |
| --- | --- | --- | --- | --- | --- | --- | --- | --- | --- | --- | --- | --- | --- |
| CN[C@H](CC(C)C)C(=O)N[C@H]1C(=O)N[C@@H](CC(N)=O)C(=O)N[C@H]2C(=O)N[C@H]3C(=O)N[C@H](C(=O)N[C@H](C(=O)O)c4cc(O)cc(O)c4-c4cc3ccc4O)[C@H](O)c3ccc(c(Cl)c3)Oc3cc2cc(c3O[C@@H]2O[C@H](CO)[C@@H](O)[C@H](O)[C@H]2O[C@H]2C[C@](C)(N)[C@H](O)[C@H](C)O2)Oc2ccc(cc2Cl)[C@H]1O [VAN, vancomycin] | 6 | 12 | 5 | 1 | 12 |  |  |  |  |  |  |  |  |
| gentamicin [GM] | 6 | 10 |  |  |  | 8 | 12 | 8 | 12 | 4 | 3 | 11 | 10 |
